Experimental data as given in patent publication US10894794B1, “Substituted [1,2,4]triazolo[4,3-a]pyrazines as antidiabetics” (King Abdulaziz University, priority 2019, dated 2021).
Marks after values point to notes of the source that are not given here.

Experiments:
Format in all cases: in vivo
[1] = test system: overnight fasted diabetic mice; assay: OGTT after multiple doses (6 consecutive days); details: for AUC in OGTT, % change from diabetic control / AUC in OGTT, Δ from diabetic control / Relative potency to sitagliptin (OGTT AUC) / AUC in OGTT, X (arithmetic mean): 50 mg/kg oral for six days; for AUC in OGTT, X (arithmetic mean): 2 h before glucose loading, AUC 0-120 min
Protocol: The tested compounds were given daily by oral gavage for 6 consecutive days. On day 6, the overnight fasted diabetic mice were pretreated with the 6th oral dose of the tested compounds. Then an oral glucose was loaded (2 g/kg/10 ml b.w.) 2 h after drug treatment. Blood glucose levels were determined using the Accu-check Go® (Roche Diagnostics, Michigan, USA). Samples were collected just before drug administration (Fasting Blood glucose), then 2 h after drug treatment and before glucose administration. Sample collection was continued at 20, 40, 60 and 120 min intervals after glucose loading.
• b. Group 1: Animals of this group are 14 h overnight-fasted normoglycemic mice received the vehicle (1% CMC-Na) at a dosing volume of 10 ml/kg/day for six consecutive days. • c. Group 2: Overnight-fasted diabetic mice received the vehicle (1% CMC-Na) at a dosing volume of 10 ml/kg/day for six consecutive days and served as a negative control. • d. Group 3: Overnight-fasted diabetic mice received sitagliptin at a dose of 50 mg/kg/day for six consecutive days and served as positive control. • e. Groups 4-17: Animals in these groups were overnight-fasted diabetic mice and received the tested compounds 128, 129, 130, 131, at a dose of 50 mg/kg/day for six consecutive days (volume of 10 ml/kg). Effect on Blood Glucose Level after Introduction of Food for One Hour (≈Meal Tolerance Test) Rational of the Test

STZ-diabetic mice = assay: Fasting blood glucose of diabetic mice during six days of treatment; details: for activity in controlling the rise of blood glucose levels in streptozotocin diabetic animals (in words) / control of fasting blood sugar compared with sitagliptin and the other compounds (in words): 50 mg/kg/day; for activity in controlling the rise of blood glucose levels in streptozotocin diabetic animals (in words): 6-day interval; for control of fasting blood sugar compared with sitagliptin and the other compounds (in words): 6 days; for Blood glucose level, fasting: 50 mg/kg/day oral, diabetic mice, mean ± SEM
Description: Our objective was to test the efficacy of the synthesized compounds for their potential to reduce blood glucose in STZ-diabetic mice. The synthesized compounds Nos. 128, 129, 130, 131,140, 142 were expected to act through the inhibition of the DPP-IV enzyme, which is responsible for the degradation of the entero-peptide GLP-I. In turn, GLP-I increases insulin and decreases glucagon release from the pancreatic islets (β and α-cells respectively). So this part of the project was designed to study the effect of the synthesized gliptin simulated compounds on blood glucose levels and their efficacy to increase glucose utilization in diabetic mice through: • a. The effect of the tested compounds in a dose of 50 mg/kg/day on fasting blood glucose blood levels of diabetic mice during six days of treatment. • b. Oral glucose tolerance test (OGTT) through oral glucose loading, 2 h after treatment with single oral dose (50 mg/kg) of the tested compounds in 14 h overnight fasted mice. • c. OGTT through oral glucose loading, 2 h after treatment with the 6th oral dose (50 mg/kg) of the tested compounds in 14 h overnight fasted mice. • d. The effect of the pretreatment with the tested compounds at an oral dose of 50 mg/kg on blood glucose levels, 3 h before and 3 h after meal feeding (feeding for one hour only, then food was removed immediately) in 14 h overnight-fasted diabetic mice.
(§1) Blood samples were collected from the tail vein and the blood glucose level was determined. Curves of blood glucose levels (mg/dL) versus the time intervals (min) were constructed and the area under the curves (AUCs) were calculated by the method of calculation embedded in GraphPad Prism® v. 5.0 (GraphPad Software, San Diego, Calif., USA). AUCs of the curves of the different groups were compared and tested for significance against control groups.
All data are presented as means±SEM. Statistical significance was evaluated by analysis of variance (ANOVA) followed by Tukey-Kramer's post hoc test for multiple comparisons. The “t” of the paired data was used to test the significance of the values of the fasting blood glucose compared to the values before treatment. Statistical significance was accepted at a level of p<0.05.

[2] = test system: 14 h overnight fasted diabetic mice; assay: Oral glucose tolerance test (OGTT) after single dose; details: for glucose-lowering activity in OGTT compared with sitagliptin (in words): single dose 50 mg/kg; for Relative potency to sitagliptin (OGTT AUC) / AUC in OGTT, % change from diabetic control / AUC in OGTT, Δ from diabetic control / AUC in OGTT, X (arithmetic mean): single oral dose 50 mg/kg; for AUC in OGTT, X (arithmetic mean): AUC 0-120 min
Protocol: The oral glucose tolerance test was done in 14 h overnight fasted diabetic mice that were pretreated with a single oral dose of the tested compounds. Each of the tested agents was suspended in sodium carboxymethyl cellulose (CMC-Na) (1% in distilled water) and the dosing volume was adjusted to 10 ml/kg body weight per mouse. Then an oral glucose load was administered (2 g/kg) 2 h after drug treatment. Blood glucose levels were determined using the Accu-check Go® (Roche Diagnostics, Michigan, USA). Blood samples were collected just before drug administration (Fasting Blood glucose), then 2 h after drug treatment and before glucose loading. Blood samples collection was continued at 20, 40, 60 and 120 min intervals after glucose loading.
Animals were distributed between 17 groups (n=6) as follow: • a. Group 1: Animals were 14 h overnight-fasted normoglycemic mice and vehicle-treated (1% CMC-Na) at a dose of 10 ml/kg. • b. Group 2: Overnight fasted diabetic mice received the vehicle (1% CMC-Na) at a dosing volume of 10 ml/kg and served as a negative control. • c. Group 3: Overnight fasted diabetic mice received sitagliptin at a dose of 50 mg/kg in 1% CMC (in a volume of 10 ml/kg) and served as positive control. • a. Groups 4-17: Animals of these groups were overnight fasted diabetic mice received the tested compounds 128, 129, 130, 131, at a dose of 50 mg/kg in 1% CMC (volume of 10 ml/kg).

[3] = test system: 14 h overnight-fasted diabetic mice; assay: Blood glucose after introduction of food for one hour (meal tolerance test); details: for antihyperglycemic activity after introduction of food (blood glucose rise and total AUC(0-180), in words): 50 mg/kg, 3 h before introduction of food; for Area under the curve AUC(0-180) after meal feeding: Day 1, 50 mg/kg oral, 3 hr pretreated
Protocol: The rational of this test was to determine the ability of the tested compounds to modulate glucose utilization after the introduction of food, after 3 h of drug administration to 14 h overnight-fasted mice (feeding with normal diet was done for 1 hr only, then food was removed during the remaining time of the test). This model is analogous to oral glucose tolerance tests (OGTT) used clinically to evaluate glycemic control, except that the meal was composed of fats, proteins and carbohydrates, and thus was a more realistic representation of the nutritional makeup of normal food. The main purpose is that during meal digestion, food contents e.g. carbohydrates, proteins and fats, were reported to cause an increase in the production of the GLP-I from the L-cells in ileum and colon. The produced GLP-I goes into circulation directly and affects insulin secretion from pancreatic β-cells. Both the GPL-I and insulin levels are expected to be high especially in the presence of a […] inhibitor.
Animals were Distributed Between 17 Groups (n=6) as Follows: • a. Group 1. Animals of this group were overnight-fasted normoglycemic mice and received the vehicle (1% CMC-Na) at a volume of 10 ml/kg/day for 4 consecutive days. • b. Group 2: overnight-fasted diabetic mice received the vehicle (1% CMC-Na) at a volume of 10 ml/kg/day for 4 consecutive days and served as a negative control. • c. Group 3: overnight fasted diabetic mice received sitagliptin at a dose of 50 mg/kg/day for 4 consecutive days in 1% CMC (in a volume of 10 ml/kg) and served as positive control. • d. Groups 4-19: Animals of these groups were overnight-fasted diabetic mice and received the tested compounds 128, 129, 130, 131,140, 142 at a dose of 50 mg/kg/day for 4 consecutive days in 1% CMC (volume of 10 ml/kg). Food was introduced for one hour only then food was removed immediately. Blood glucose levels were determined just before and 3 h after drug administration and then at 0, 60, 120 and 180 min after meal. Blood Sampling and Blood Glucose Determination
as §1

SMILES	AUC in OGTT, % change from diabetic control [1] [%]	AUC in OGTT, Δ from diabetic control [1] [mg·min/dL]	Relative potency to sitagliptin (OGTT AUC) [1]	AUC in OGTT, X (arithmetic mean) [1]	activity in controlling the rise of blood glucose levels in streptozotocin diabetic animals (in words) (STZ-diabetic mice)	control of fasting blood sugar compared with sitagliptin and the other compounds (in words) (STZ-diabetic mice)	Blood glucose level, fasting (STZ-diabetic mice; Day 4) [mg/dL]	Blood glucose level, fasting (STZ-diabetic mice; Day 5) [mg/dL]	Blood glucose level, fasting (STZ-diabetic mice; Day 6) [mg/dL]	glucose-lowering activity in OGTT compared with sitagliptin (in words) [2]	Relative potency to sitagliptin (OGTT AUC) [2]	AUC in OGTT, % change from diabetic control ([2]; 2 h before glucose loading) [%]	AUC in OGTT, Δ from diabetic control ([2]; 2 h before glucose loading) [mg·min/dL]	AUC in OGTT, X (arithmetic mean) ([2]; 2 h before glucose loading)	antihyperglycemic activity after introduction of food (blood glucose rise and total AUC(0-180), in words) [3]	Area under the curve AUC(0-180) after meal feeding [3]	relative potency in OGTT compared with sitagliptin (in words) ([1]; 6 consecutive days, 50 mg/kg)	control of fasting blood sugar compared with sitagliptin and the other compounds (in words) (STZ-diabetic mice; listed as 131)	reduction in the total AUC compared to the diabetic control mice ([2]; single dose, 2 h before glucose loading, AUC 0-120) [%]
O=C(NCC(=O)N1CCn2c(nnc2C(F)(F)F)C1)c1cccc(Cl)c1 [GLP-128]	−11.93	-6287	0.32	46368 mg·min/dL	significant activity	least effective	195.00 ± 27.49	200.60 ± 23.21	188.60 ± 15.86	higher glucose-lowering activity than sitagliptin	1.2	−29.15	-14887	36178* mg · dL^−1 · min	significant antihyperglycemic activity	69336 ± mg · dL^−1 · min	–	–	–
O=C(NCCC(=O)N1CCn2c(nnc2C(F)(F)F)C1)c1cccc(Cl)c1 [GLP-129]	−11.76	-6197	0.31	46458 mg·min/dL	significant activity	comparable to that of sitagliptin	–	–	–	less potent than sitagliptin	0.45	−10.93	-5585	45480 mg·min/dL	significant antihyperglycemic activity	73248 ± mg · dL^−1 · min	–	–	–
O=C(NCC(=O)N1CCn2c(nnc2C(F)(F)F)C1)c1ccc(Cl)cc1 [GLP-131]	−49.59	-26113	1.31	26542* mg · dL^−1 · min	significant activity	most consistent and extended activities	–	–	–	higher glucose-lowering activity than sitagliptin	1.52	−36.88	-18835	32230* mg · dL^−1 · min	significant antihyperglycemic activity	56340 ± mg · dL^−1 · min	comparable or higher relative potency than sitagliptin	comparable to that of sitagliptin	–
N[C@@H](CC(=O)N1CCn2c(nnc2C(F)(F)F)C1)Cc1cc(F)c(F)cc1F [Sitagliptin, sitagliptin, reference compound]	−37.85	-19932	1	32723 mg·min/dL	–	–	–	–	–	–	1	−24.20	-12362	38703* mg · dL^−1 · min	significant antihyperglycemic activity	51776 ± mg · dL^−1 · min	–	–	24.2
